# Measurements published in US9169254B2, “Spiroimidazolone derivative” (Chugai Seiyaku Kabushiki Kaisha, priority 2009, dated 2015).
# Target: T1, human PTH1 receptor (Homo sapiens, UniProt Q03431)
# T1 sequence (Q03431 27-593): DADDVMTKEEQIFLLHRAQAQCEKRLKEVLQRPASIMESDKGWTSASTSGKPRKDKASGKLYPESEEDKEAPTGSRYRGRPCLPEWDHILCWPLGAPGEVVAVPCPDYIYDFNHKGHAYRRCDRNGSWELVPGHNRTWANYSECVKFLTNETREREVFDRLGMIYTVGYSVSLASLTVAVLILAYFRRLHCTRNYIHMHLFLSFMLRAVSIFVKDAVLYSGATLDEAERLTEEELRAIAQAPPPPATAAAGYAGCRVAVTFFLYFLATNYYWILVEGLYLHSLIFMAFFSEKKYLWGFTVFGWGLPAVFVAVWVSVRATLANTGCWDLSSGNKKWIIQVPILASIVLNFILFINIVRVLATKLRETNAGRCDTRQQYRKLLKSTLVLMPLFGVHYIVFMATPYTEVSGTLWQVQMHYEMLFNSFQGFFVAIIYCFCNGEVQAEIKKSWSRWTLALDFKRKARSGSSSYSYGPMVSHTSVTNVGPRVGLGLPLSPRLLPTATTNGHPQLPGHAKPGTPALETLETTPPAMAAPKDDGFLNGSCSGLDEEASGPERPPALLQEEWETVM
# Experiment: In vitro cAMP signal activity in HKRK-B7 cells (LLC-PK1 cells overexpressing the human PTH1 receptor)
# Format: cell-based
# Conditions: HKRK-B7 cells; compound at 1×10^−3 M; cAMP produced as percentage of that produced by hPTH(1-34) at 100 nM
row,SMILES,cAMP production activity (%)
1,"Cc1cc(OCCC(O)CO)cc(C)c1CCS(=O)(=O)N1CCC2(CC1)N=C(c1cccc(OC(F)(F)F)c1)NC2=O (stereo not drawn) [Compound 676, 8-{2-[4-(3,4-dihydroxy-butoxy)-2,6-dimethyl-phenyl]-ethanesulfonyl}-2-(3-trifluoromethoxy-phenyl)-1,3,8-triaza-spiro[4.5]dec-1-en-4-one]",69
2,"CCCCC1CCC(C2=NC3(CCN(S(=O)(=O)CCc4c(C)cc(N5C(=O)CNC5=O)cc4C)CC3)C(=O)N2)CC1 (stereo not drawn) [Compound 677, 3-(4-{2-[2-(4-Butyl-cyclohexyl)-4-oxo-1,3,8-triaza-spiro[4.5]dec-1-ene-8-sulfonyl]-ethyl}-3,5-dimethyl-phenyl)-imidazolidine-2,4-dione]",69
3,"CC(=O)N(c1ccc(CCS(=O)(=O)N2CCC3(CC2)N=C(c2cccc(OC(F)(F)F)c2)NC3=O)c(C)c1)C1CCCC1 [Compound 678, N-Cyclopentyl-N-(3-methyl-4-{2-[4-oxo-2-(3-trifluoromethoxy-phenyl)-1,3,8-triaza-spiro[4.5]dec-1-ene-8-sulfonyl]-ethyl}-phenyl)-acetamide]",86
4,"Cc1c(CCS(=O)(=O)N2CCC3(CC2)N=C(C2CCC(C)CC2)NC3=O)ccc(N(C)C(N)=O)c1C (stereo not drawn) [Compound 679, 1-(2,3-Dimethyl-4-{2-[2-(4-methyl-cyclohexyl)-4-oxo-1,3,8-triaza-spiro[4.5]dec-1-ene-8-sulfonyl]-ethyl}-phenyl)-1-methyl-urea]",65
5,"Cc1cc(N(C)C(N)=O)c(C)cc1CCS(=O)(=O)N1CCC2(CC1)N=C(C1CCC(C)CC1)NC2=O (stereo not drawn) [Compound 680, 1-(2,5-dimethyl-4-{2-[2-(4-methyl-cyclohexyl)-4-oxo-1,3,8-triaza-spiro[4.5]dec-1-ene-8-sulfonyl]-ethyl}-phenyl)-1-methyl-urea]",101
6,"Cc1cc(CN(CCO)C(=O)OC(C)(C)C)ccc1CCS(=O)(=O)N1CCC2(CC1)N=C(C1CCCCC1)NC2=O [Compound 681, {4-[2-(2-Cyclohexyl-4-oxo-1,3,8-triaza-spiro[4.5]dec-1-ene-8-sulfonyl)-ethyl]-3-methyl-benzyl}-(2-hydroxy-ethyl)-carbamic acid tert-butyl ester]",55
7,"COc1cc(N(C)C(N)=O)cc(C)c1CCS(=O)(=O)N1CCC2(CC1)N=C(C1CCC(C)CC1)NC2=O (stereo not drawn) [Compound 682, 1-(3-Methoxy-5-methyl-4-{2-[2-(4-methyl-cyclohexyl)-4-oxo-1,3,8-triaza-spiro[4.5]dec-1-ene-8-sulfonyl]-ethyl}-phenyl)-1-methyl-urea]",81
8,"Cc1cc(N(C)C(N)=O)cc(Cl)c1CCS(=O)(=O)N1CCC2(CC1)N=C(C1CCC(C)CC1)NC2=O (stereo not drawn) [Compound 683, 1-(3-Chloro-5-methyl-4-{2-[2-(4-methyl-cyclohexyl)-4-oxo-1,3,8-triaza-spiro[4.5]dec-1-ene-8-sulfonyl]-ethyl}-phenyl)-1-methyl-urea]",74
9,"COc1c(N(C)C(N)=O)cc(C)c(CCS(=O)(=O)N2CCC3(CC2)N=C([C@H]2CC[C@H](C)CC2)NC3=O)c1C [Compound 684, 1-(2-methoxy-3,5-dimethyl-4-{2-[2-(4-methyl-cyclohexyl)-4-oxo-1,3,8-triaza-spiro[4.5]dec-1-ene-8-sulfonyl]-ethyl}-phenyl)-1-methyl-urea]",101
10,"Cc1cc2[nH]c(=O)[nH]c(=O)c2c(C)c1CCS(=O)(=O)N1CCC2(CC1)N=C(C1CCC(C)CC1)NC2=O (stereo not drawn) [Compound 685, 5,7-Dimethyl-6-{2-[2-(4-methyl-cyclohexyl)-4-oxo-1,3,8-triaza-spiro[4.5]dec-1-ene-8-sulfonyl]-ethyl}-1H-quinazoline-2,4-dione]",46
11,"NCCn1ccc2c(/C=C/S(=O)(=O)N3CCC4(CC3)N=C(C3CCCCC3)NC4=O)cccc21 [Compound 686, 8-{(E)-2-[1-(2-Amino-ethyl)-1H-indol-4-yl]-ethenesulfonyl}-2-cyclohexyl-1,3,8-triaza-spiro[4.5]dec-1-en-4-one]",22
12,"NCc1ccc(/C=C/S(=O)(=O)N2CCC3(CC2)N=C(C2CCCCC2)NC3=O)cc1 [Compound 687, 8-[(E)-2-(4-aminomethyl-phenyl)-ethenesulfonyl]-2-cyclohexyl-1,3,8-triaza-spiro[4.5]dec-1-en-4-one]",25
13,"Cc1cc(NC(=O)[C@@H](N)CO)ccc1/C=C/S(=O)(=O)N1CCC2(CC1)N=C(c1cccc(C(F)(F)F)c1)NC2=O [Compound 688, (S)-2-Amino-3-hydroxy-N-(3-methyl-4-{(E)-2-[4-oxo-2-(3-trifluoromethyl-phenyl)-1,3,8-triaza-spiro[4.5]dec-1-ene-8-sulfonyl]-vinyl}-phenyl)-propionamide]",55
14,"Cc1cc(N(C2CCNCC2)S(C)(=O)=O)cc(C)c1/C=C/S(=O)(=O)N1CCC2(CC1)N=C(c1cccc(OC(F)(F)F)c1)NC2=O [Compound 689, N-(3,5-Dimethyl-4-{(E)-2-[4-oxo-2-(3-trifluoromethoxy-phenyl)-1,3,8-triaza-spiro[4.5]dec-1-ene-8-sulfonyl]-vinyl}-phenyl)-N-piperidin-4-yl-methanesulfonamide]",27
15,"CNc1cc(C)c(/C=C/S(=O)(=O)N2CCC3(CC2)N=C(CCCCCCCCC(F)(F)F)NC3=O)c(C)c1 [Compound 690, 8-[(E)-2-(2,6-Dimethyl-4-methylamino-phenyl)-ethenesulfonyl]-2-(9,9,9-trifluoro-nonyl)-1,3,8-triaza-spiro[4.5]dec-1-en-4-one]",86
16,"CNc1cc(C)c(/C=C/S(=O)(=O)N2CCC3(CC2)N=C(CCCCCCCC(F)(F)C(F)(F)F)NC3=O)c(C)c1 [Compound 691, 8-[(E)-2-(2,6-Dimethyl-4-methylamino-phenyl)-ethenesulfonyl]-2-(8,8,9,9,9-pentafluoro-nonyl)-1,3,8-triaza-spiro[4.5]dec-1-en-4-one]",69
17,"CCCCCCCCCC1=NC2(CCN(S(=O)(=O)/C=C/c3c(C)cc(N(C)C(N)=O)cc3C)CC2)C(=O)N1 [Compound 692, 1-{3,5-Dimethyl-4-[(E)-2-(2-nonyl-4-oxo-1,3,8-triaza-spiro[4.5]dec-1-ene-8-sulfonyl)-vinyl]-phenyl}-1-methyl-urea]",101
18,"COc1c(N(C)C(N)=O)cc(C)c(/C=C/S(=O)(=O)N2CCC3(CC2)N=C([C@H]2CC[C@H](C)CC2)NC3=O)c1C [Compound 693, 1-(2-Methoxy-3,5-dimethyl-4-{(E)-2-[2-(4-methyl-cyclohexyl)-4-oxo-1,3,8-triaza-spiro[4.5]dec-1-ene-8-sulfonyl]-vinyl}-phenyl)-1-methyl-urea]",103
19,"Cc1cc(N(CCF)C(N)=O)cc(C)c1/C=C/S(=O)(=O)N1CCC2(CC1)N=C(C1CCC(CCC(F)(F)F)CC1)NC2=O (stereo not drawn) [Compound 694, 1-[3,5-Dimethyl-4-((E)-2-{4-oxo-2-[4-(3,3,3-trifluoro-propyl)-cyclohexyl]-1,3,8-triaza-spiro[4.5]dec-1-ene-8-sulfonyl}-vinyl)-phenyl]-1-(2-fluoro-ethyl)-urea]",77
20,"Cc1cc(N(C)C(N)=O)cc(Cl)c1/C=C/S(=O)(=O)N1CCC2(CC1)N=C(C1CCC(C)CC1)NC2=O (stereo not drawn) [Compound 695, 1-(3-Chloro-5-methyl-4-{(E)-2-[2-(4-methyl-cyclohexyl)-4-oxo-1,3,8-triaza-spiro[4.5]dec-1-ene-8-sulfonyl]-vinyl}-phenyl)-1-methyl-urea]",78
21,"Cc1cc(N(C)C(N)=O)cc(C)c1CCS(=O)(=O)N1CCC2(CC1)N=C(C1CCC(CCC(F)(F)F)CC1)NC2=O (stereo not drawn) [Compound 696, 1-[3,5-Dimethyl-4-(2-{4-oxo-2-[4-(3,3,3-trifluoro-propyl)-cyclohexyl]-1,3,8-triaza-spiro[4.5]dec-1-ene-8-sulfonyl}-ethyl)-phenyl]-1-methyl-urea]",132
22,"Cc1cc(OC[C@H](O)CO)cc(C)c1/C=C/S(=O)(=O)N1CCC2(CC1)N=C(C1CCC(CCC(F)(F)F)CC1)NC2=O (stereo partly drawn) [Compound 697, 8-{(E)-2-[4-((R)-2,3-Dihydroxy-propoxy)-2,6-dimethyl-phenyl]-ethenesulfonyl}-2-[4-(3,3,3-trifluoro-propyl)-cyclohexyl]-1,3,8-triaza-spiro[4.5]dec-1-en-4-one]",60
23,"Cc1cc(OCCOC[C@H](O)CO)cc(C)c1/C=C/S(=O)(=O)N1CCC2(CC1)N=C(C1CCC(CCC(F)(F)F)CC1)NC2=O (stereo partly drawn) [Compound 698, 8-((E)-2-{4-[2-((R)-2,3-dihydroxy-propoxy)-ethoxy]-2,6-dimethyl-phenyl}-ethenesulfonyl)-2-[4-(3,3,3-trifluoro-propyl)-cyclohexyl]-1,3,8-triaza-spiro[4.5]dec-1-en-4-one]",62
24,"CC(=O)N(CCOCCO)c1cc(C)c(/C=C/S(=O)(=O)N2CCC3(CC2)N=C(C2CCC(CCC(F)(F)F)CC2)NC3=O)c(C)c1 (stereo not drawn) [Compound 699, N-[3,5-Dimethyl-4-((E)-2-{4-oxo-2-[4-(3,3,3-trifluoro-propyl)-cyclohexyl]-1,3,8-triaza-spiro[4.5]dec-1-ene-8-sulfonyl}-vinyl)-phenyl]-N-[2-(2-hydroxy-ethoxy)-ethyl]-acetamide]",101
